{"source": "patent US20190062428A1", "about": "“COMBINATION OF ANTI-CD47 ANTIBODIES AND CELL DEATH-INDUCING AGENTS, AND USES THEREOF” (Surface Oncology, Inc., priority 2017, published 2019)", "system": "Ri-1 tumors", "assay": "Ri-1 human B cell lymphoma (DLBCL) subcutaneous xenograft, tumor volume", "format": "in vivo, CB.17 SCID mice", "conditions": "FIG. 4", "procedure": "The Ri-1 cell line is a human B cell lymphoma line that represents the ABC-subtype of diffuse large cell B cell lymphoma (DLBCL) and harbors a BCL-2 amplification. ABT-199, also known as Venclexta™ or Venetoclax, is an oral BCL-2 inhibitor, and was used as the cell death-inducing agent.\nBriefly, 1×10^7 Ri-1 cells were injected subcutaneously into the right flank of CB.17 SCID mice in a 1:1 mixture of RPMI and Matrigel. Tumors were allowed to grow until they were 200-300 mm^3.", "data": [{"compound": "CC1(C)CCC(CN2CCN(c3ccc(C(=O)NS(=O)(=O)c4ccc(NCC5CCOCC5)c([N+](=O)[O-])c4)c(Oc4cnc5[nH]ccc5c4)c3)CC2)=C(c2ccc(Cl)cc2)C1", "note": "[ABT-199, reference compound]", "values": [{"measurement": "single-agent anti-tumor activity", "setting": "2.3D11 100 μg/mouse days 0, 3, 7, ABT-199 25 mg/kg days 0-4", "value": "potent single-agent anti-tumor activity"}, {"measurement": "tumor re-growth", "setting": "single agents as above, combination: 2.3D11 100 μg/mouse day 0, then oral ABT-199 25 mg/kg days 3, 4, 5", "value": "tumors re-grew"}]}]}
